According to PMC5762315, “Inhibition of polo-like kinase 4 (PLK4): a new therapeutic option for rhabdoid tumors and pediatric medulloblastoma” (Oncotarget, 2017):
Where “and” joins values, the source holds several entries; their conditions need not be identical. Equal entries are not always repeated.

Assays:
Test in all cases: biochemical
Assay type in all cases: biochemical
various kinases [1] = biological target: various kinases (Homo sapiens, UniProt P28482); details: MAPK1 (ERK2)
various kinases [2] = biological target: various kinases (Homo sapiens, UniProt O95819); details: MAP4K4 (HGK)
various kinases [3] = biological target: various kinases (Homo sapiens, UniProt P49137); details: MAPKAPK2
various kinases [4] = biological target: various kinases (Homo sapiens, UniProt Q13464); details: kinase ROCK1; ZLYTE
various kinases [5] = biological target: various kinases (Homo sapiens, UniProt P53350); details: kinase PLK1; ZLYTE
various kinases [6] = biological target: various kinases (Homo sapiens, UniProt P17252); details: kinase PRKCA (PKC alpha); ZLYTE
various kinases [7] = biological target: various kinases (Homo sapiens, UniProt Q9P286); details: PAK7 (KIAA1264)
various kinases [8] = biological target: various kinases (Homo sapiens, UniProt Q16816); details: PHKG1
various kinases [9] = biological target: various kinases (Homo sapiens, UniProt O15075); details: DCAMKL1 (DCLK1)
various kinases [10] = biological target: various kinases (Homo sapiens, UniProt P29597); details: kinase TYK2; ZLYTE
various kinases [11] = biological target: T1, various kinases (Homo sapiens, UniProt P42681); details: kinase TXK; ZLYTE
T1 sequence (P42681 1-527): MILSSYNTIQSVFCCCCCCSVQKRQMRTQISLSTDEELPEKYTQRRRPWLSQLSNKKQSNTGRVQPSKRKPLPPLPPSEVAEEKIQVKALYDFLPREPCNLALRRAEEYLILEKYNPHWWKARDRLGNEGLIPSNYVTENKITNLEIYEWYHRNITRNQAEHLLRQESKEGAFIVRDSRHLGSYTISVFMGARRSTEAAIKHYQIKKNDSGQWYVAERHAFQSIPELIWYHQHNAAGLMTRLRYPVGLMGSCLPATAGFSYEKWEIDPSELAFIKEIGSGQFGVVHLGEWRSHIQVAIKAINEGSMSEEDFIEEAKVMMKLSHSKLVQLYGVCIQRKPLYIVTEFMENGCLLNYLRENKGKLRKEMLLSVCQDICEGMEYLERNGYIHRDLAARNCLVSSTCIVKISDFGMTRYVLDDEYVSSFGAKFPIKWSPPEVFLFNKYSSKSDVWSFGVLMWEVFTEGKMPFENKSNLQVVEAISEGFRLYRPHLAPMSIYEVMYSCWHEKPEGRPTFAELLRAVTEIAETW

various kinases [12] = biological target: various kinases (Homo sapiens, UniProt Q13554); details: CAMK2B (CaMKII beta)
various kinases [13] = biological target: various kinases (Homo sapiens, UniProt Q04759); details: kinase PRKCQ (PKC theta); ZLYTE
various kinases [14] = biological target: various kinases (Homo sapiens, UniProt O76039); details: CDKL5
various kinases [15] = biological target: various kinases (Homo sapiens, UniProt P24723); details: kinase PRKCH (PKC eta); ZLYTE
various kinases [16] = biological target: various kinases (Homo sapiens, UniProt P24941); details: CDK2/cyclin A
various kinases [17] = biological target: various kinases (Homo sapiens, UniProt P29317); details: EPHA2
various kinases [18] = biological target: various kinases (Homo sapiens, UniProt P42685); details: FRK (PTK5)
various kinases [19] = biological target: various kinases (Homo sapiens, UniProt P51955); details: NEK2
various kinases [20] = biological target: various kinases (Homo sapiens, UniProt P08581, Y1235D); details: MET (cMet) Y1235D
various kinases [21] = biological target: various kinases (Homo sapiens, UniProt Q56UN5); details: MAP3K19 (YSK4)
various kinases [22] = biological target: various kinases (Homo sapiens, UniProt P21802, N549H); details: FGFR2 N549H
various kinases [23] = biological target: various kinases (Homo sapiens, UniProt Q86V86); details: PIM3
various kinases [24] = biological target: various kinases (Homo sapiens, UniProt Q8TDC3); details: BRSK1 (SAD1)
various kinases [25] = biological target: various kinases (Homo sapiens, UniProt Q00535)
Sequence of various kinases (Homo sapiens, UniProt Q00535) (Q00535 whole entry): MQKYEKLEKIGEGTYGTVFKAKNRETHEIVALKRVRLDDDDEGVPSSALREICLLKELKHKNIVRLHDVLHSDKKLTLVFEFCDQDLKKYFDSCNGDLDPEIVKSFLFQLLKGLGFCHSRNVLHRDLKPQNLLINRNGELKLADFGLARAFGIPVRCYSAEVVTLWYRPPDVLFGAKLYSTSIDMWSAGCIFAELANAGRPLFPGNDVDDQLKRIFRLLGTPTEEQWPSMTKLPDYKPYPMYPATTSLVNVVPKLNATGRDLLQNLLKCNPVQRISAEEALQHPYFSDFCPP

Sequence of various kinases (Homo sapiens, UniProt Q13464) (Q13464 whole entry): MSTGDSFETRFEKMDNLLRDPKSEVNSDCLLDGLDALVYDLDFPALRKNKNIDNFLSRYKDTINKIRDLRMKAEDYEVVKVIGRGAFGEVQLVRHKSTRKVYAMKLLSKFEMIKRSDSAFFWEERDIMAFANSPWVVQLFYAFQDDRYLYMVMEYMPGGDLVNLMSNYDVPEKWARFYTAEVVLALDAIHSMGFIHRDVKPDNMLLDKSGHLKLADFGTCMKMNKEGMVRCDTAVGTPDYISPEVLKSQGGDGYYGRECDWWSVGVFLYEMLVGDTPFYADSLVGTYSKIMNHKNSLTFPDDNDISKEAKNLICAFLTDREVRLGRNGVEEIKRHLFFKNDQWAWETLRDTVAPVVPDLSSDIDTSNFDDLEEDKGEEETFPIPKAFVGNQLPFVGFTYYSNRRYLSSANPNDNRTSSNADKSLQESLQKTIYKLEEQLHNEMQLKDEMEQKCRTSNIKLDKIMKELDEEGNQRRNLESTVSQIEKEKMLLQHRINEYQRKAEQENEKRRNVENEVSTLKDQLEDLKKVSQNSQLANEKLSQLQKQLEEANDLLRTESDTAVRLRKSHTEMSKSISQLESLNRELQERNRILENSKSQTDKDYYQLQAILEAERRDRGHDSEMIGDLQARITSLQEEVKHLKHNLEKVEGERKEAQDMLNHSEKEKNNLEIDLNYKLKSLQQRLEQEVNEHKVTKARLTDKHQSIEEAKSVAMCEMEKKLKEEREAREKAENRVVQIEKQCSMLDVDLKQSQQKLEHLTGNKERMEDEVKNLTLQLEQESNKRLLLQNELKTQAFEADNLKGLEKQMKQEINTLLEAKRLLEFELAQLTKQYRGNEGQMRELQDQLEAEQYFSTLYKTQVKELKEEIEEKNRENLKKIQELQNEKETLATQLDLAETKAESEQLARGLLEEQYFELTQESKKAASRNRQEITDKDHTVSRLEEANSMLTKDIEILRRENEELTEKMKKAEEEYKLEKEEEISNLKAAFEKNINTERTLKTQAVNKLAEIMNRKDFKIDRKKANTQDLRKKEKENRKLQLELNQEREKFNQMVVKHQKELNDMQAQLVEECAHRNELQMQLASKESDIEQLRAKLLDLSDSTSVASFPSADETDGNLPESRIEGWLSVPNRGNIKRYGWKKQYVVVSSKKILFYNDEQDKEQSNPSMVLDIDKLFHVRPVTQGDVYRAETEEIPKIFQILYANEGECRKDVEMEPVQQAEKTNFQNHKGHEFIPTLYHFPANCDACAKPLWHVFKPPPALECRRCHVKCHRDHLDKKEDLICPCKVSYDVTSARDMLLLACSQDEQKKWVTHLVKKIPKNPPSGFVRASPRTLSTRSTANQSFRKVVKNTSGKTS
Sequence of various kinases (Homo sapiens, UniProt P53350) (P53350 whole entry): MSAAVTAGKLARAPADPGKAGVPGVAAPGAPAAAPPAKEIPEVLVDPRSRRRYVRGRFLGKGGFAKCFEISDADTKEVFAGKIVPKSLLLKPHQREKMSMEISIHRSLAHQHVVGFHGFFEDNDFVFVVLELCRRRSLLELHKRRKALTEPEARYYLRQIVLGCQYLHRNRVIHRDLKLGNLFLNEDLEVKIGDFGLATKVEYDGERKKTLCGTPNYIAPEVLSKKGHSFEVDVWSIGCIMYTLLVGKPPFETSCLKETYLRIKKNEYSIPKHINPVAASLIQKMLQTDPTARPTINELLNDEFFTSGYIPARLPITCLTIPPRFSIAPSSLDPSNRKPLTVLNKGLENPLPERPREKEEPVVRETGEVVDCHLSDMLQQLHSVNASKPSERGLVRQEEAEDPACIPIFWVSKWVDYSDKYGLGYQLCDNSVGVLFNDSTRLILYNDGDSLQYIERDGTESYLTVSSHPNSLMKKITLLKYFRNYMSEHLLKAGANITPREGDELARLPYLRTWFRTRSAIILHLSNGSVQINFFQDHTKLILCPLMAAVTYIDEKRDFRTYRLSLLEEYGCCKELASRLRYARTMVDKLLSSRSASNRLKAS
Sequence of various kinases (Homo sapiens, UniProt P29597) (P29597 whole entry): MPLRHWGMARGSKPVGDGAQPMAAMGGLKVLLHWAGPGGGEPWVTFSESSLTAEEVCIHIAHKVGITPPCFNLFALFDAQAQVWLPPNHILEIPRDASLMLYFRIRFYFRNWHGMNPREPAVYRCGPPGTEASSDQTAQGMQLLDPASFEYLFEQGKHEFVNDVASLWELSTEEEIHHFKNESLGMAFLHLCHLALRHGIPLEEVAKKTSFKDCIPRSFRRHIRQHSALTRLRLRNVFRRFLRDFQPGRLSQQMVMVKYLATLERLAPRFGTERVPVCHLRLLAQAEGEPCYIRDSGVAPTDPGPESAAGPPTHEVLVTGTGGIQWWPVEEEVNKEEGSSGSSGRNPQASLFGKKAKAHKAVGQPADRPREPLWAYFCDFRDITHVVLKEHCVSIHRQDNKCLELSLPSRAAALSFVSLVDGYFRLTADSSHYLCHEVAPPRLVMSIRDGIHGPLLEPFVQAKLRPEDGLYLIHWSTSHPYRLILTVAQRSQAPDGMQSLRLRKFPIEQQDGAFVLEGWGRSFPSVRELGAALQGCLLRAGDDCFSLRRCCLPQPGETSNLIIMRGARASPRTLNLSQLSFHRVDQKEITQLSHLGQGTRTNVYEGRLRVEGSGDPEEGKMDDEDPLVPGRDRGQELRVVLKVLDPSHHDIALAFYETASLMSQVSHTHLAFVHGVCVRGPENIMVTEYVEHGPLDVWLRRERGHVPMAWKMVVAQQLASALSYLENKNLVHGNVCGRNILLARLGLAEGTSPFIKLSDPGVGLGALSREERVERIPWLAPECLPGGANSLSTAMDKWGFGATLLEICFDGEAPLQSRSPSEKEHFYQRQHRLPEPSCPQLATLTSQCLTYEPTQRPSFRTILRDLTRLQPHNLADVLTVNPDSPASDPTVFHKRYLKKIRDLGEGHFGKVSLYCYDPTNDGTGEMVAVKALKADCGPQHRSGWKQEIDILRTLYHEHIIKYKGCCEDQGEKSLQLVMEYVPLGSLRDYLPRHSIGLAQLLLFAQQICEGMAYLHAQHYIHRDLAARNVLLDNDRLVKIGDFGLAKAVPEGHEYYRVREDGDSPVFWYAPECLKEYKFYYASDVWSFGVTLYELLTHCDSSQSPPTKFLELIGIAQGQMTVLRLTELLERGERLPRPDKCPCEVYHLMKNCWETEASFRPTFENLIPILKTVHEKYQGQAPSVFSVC
Sequence of various kinases (Homo sapiens, UniProt P24723) (P24723 whole entry): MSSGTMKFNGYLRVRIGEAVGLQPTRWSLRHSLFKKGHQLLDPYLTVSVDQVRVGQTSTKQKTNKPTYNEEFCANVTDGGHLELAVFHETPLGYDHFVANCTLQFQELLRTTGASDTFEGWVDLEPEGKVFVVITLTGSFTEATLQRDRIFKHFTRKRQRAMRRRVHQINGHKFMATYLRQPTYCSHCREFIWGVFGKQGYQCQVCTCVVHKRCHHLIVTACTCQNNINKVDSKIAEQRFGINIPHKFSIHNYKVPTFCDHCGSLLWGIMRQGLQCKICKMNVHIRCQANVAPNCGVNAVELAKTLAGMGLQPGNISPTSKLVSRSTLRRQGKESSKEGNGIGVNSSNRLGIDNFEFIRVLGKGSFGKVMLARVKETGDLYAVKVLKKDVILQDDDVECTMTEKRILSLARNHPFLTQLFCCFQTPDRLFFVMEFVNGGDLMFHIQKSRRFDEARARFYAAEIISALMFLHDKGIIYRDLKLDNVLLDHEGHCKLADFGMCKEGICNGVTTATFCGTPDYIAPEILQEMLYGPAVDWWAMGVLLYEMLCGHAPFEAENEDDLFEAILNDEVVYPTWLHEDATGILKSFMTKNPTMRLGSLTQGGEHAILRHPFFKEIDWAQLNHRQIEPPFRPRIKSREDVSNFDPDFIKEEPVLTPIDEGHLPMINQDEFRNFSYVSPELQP
Sequence of various kinases (Homo sapiens, UniProt Q04759) (Q04759 whole entry): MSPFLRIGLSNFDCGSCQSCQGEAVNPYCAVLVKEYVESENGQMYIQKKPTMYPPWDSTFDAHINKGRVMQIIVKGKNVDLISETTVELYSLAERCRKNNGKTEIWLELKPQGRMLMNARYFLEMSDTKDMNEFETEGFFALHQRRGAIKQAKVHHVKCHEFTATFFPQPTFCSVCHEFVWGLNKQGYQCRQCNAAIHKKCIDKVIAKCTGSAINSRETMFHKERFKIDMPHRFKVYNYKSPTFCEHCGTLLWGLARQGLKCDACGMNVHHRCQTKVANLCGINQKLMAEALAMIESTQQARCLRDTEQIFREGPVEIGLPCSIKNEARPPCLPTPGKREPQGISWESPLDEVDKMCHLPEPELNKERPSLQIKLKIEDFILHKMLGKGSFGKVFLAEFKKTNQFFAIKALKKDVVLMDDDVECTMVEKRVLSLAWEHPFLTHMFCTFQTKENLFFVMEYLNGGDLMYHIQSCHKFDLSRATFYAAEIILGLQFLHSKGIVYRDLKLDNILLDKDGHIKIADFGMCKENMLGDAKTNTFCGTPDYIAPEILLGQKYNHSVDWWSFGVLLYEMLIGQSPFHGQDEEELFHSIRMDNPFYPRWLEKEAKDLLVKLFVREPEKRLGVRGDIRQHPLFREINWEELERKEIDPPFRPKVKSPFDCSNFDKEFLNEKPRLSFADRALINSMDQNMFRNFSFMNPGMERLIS

## COc1ccc2c(c1)[C@]1(C[C@H]1c1ccc3c(/C=C/c4ccc(CN5C[C@@H](C)O[C@@H](C)C5)cc4)n[nH]c3c1)C(=O)N2 [CFI-400945]
Various kinases [1]
  % Inhibition: 9% and 7%
Various kinases [2]
  % Inhibition: 9% and 13%
Various kinases [3]
  % Inhibition: 15% and 12%
Various kinases [4]
  % Inhibition Average: 0%
  % Inhibition Duplicate #1: 0%
  % Inhibition Duplicate #2: 0%
Various kinases [5]
  % Inhibition Average: 5%
  % Inhibition Duplicate #1: 6%
  % Inhibition Duplicate #2: 5%
Various kinases [6]
  % Inhibition Average: 5%
  % Inhibition Duplicate #1: -1%
  % Inhibition Duplicate #2: 12%
Various kinases [7]
  % Inhibition: 9% and 13%
Various kinases [8]
  % Inhibition: 10% and 7%
Various kinases [9]
  % Inhibition: -2%
Various kinases [10]
  % Inhibition Average: 2%
  % Inhibition Duplicate #1: 2%
  % Inhibition Duplicate #2: 2%
Various kinases [11]
  % Inhibition Average: 7%
  % Inhibition Duplicate #1: 6%
  % Inhibition Duplicate #2: 8%
Various kinases [12]
  % Inhibition: 13% and 14%
Various kinases [13]
  % Inhibition Average: 7%
  % Inhibition Duplicate #1: 1%
  % Inhibition Duplicate #2: 13%
Various kinases [14]
  % Inhibition: 5%
Various kinases [15]
  % Inhibition Average: -3%
  % Inhibition Duplicate #1: -10%
  % Inhibition Duplicate #2: 3%
Various kinases [16]
  % Inhibition: 7% and 2%
Various kinases [17]
  % Inhibition: 14% and 12%
Various kinases [18]
  % Inhibition: 8% and 7%
Various kinases [19]
  % Inhibition: -1% and 1%
Various kinases [20]
  % Inhibition: 5% and 6%
Various kinases [21]
  % Inhibition: 7% and 4%
Various kinases [22]
  % Inhibition: 12% and 18%
Various kinases [23]
  % Inhibition: -1% and 0%
Various kinases [24]
  % Inhibition: 13% and 7%
Various kinases [25]; CDK5/p25
  % Inhibition: 6% and 8%
Various kinases [25]; CDK5/p35
  % Inhibition: 2% and 3%
